Laboratory results published in the METLIN SMRT retention time set (Domingo-Almenara et al. 2019).

Assay: gradient 5% acetonitrile 3 min, to 50% in 2 min, to 85% in 15 min, held 3 min, 100 µL/min
Settings: column: Zorbax Extend-C18 2.1 x 50 mm; eluents: water / acetonitrile, 0.1% formic acid
Method in brief: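 Pure standards were run in mixtures of ~100 molecules by HPLC coupled to a quadrupole time-of-flight mass spectrometer. The column was a Zorbax Extend-C18 (2.1 × 50 mm, 1.8 μm) at 100 μL/min, with water and acetonitrile each containing 0.1% formic acid, in positive and negative ionization mode. Dead and dwell volumes were 40 μL and 900 μL. Retention time was taken from computationally picked adduct peaks, each manually inspected, with data collected over 3 months.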

Row | RP-LC retention time [s] | SMILES
1 | 707 | O=C(Cn1nc2c3ccc(F)cc3ncn2c1=O)Nc1ccc2c(c1)OCO2
2 | 930 | CCOc1ccc(N2C=C(C(=O)N3CCCC3)S(=O)(=O)c3ccc(Cl)cc32)cc1
3 | 630 | O=C(CC1CCN(C(=O)c2ccc3oc(-c4ccccc4)nc3c2)CC1)NCCN1CCOCC1
4 | 778 | O=C(NC1CCCCC1)C1CCCN(c2ncnc3c2nc2n3CCCCC2)C1 (stereo unspecified)
5 | 973 | CCOc1cc(CNC(=O)c2ccc3c(c2)N(C)C(=O)c2ccccc2O3)cc(OCC)c1OCC
6 | 614 | CN(C)C(=O)C1CCc2sc(C(=O)N3CCOCC3)cc2C1 (stereo unspecified)
7 | 660 | O=C(CSc1ccc(N2CCCC(C(=O)NC3CC3)C2)nn1)Nc1ccc(F)c(Cl)c1 (stereo unspecified)
8 | 963 | CCc1nc(-c2ccc(-c3noc(CNC(=O)c4ccccc4)n3)cc2)cs1
9 | 688 | CCNC(=O)C1CCCN(c2nc3ncn(CC(=O)Nc4cc(F)cc(F)c4)c(=O)c3s2)C1 (stereo unspecified)
10 | 957 | Cc1noc(C)c1-c1ccc(S(=O)(=O)NCCc2ccccc2)cc1
11 | 603 | COCC(=O)Nc1ccc(N2CCN(C3CCCCC3)CC2)cc1C(=O)O
12 | 1010 | Cc1cccc(CN2N=C(C(=O)N3CCCCC3)S(=O)(=O)c3ccccc32)c1
13 | 949 | CCSc1nnc(-c2nn(C)c3c2CN(S(=O)(=O)c2cc(F)ccc2F)CC3)n1CC
14 | 862 | Cc1ccc(S(=O)(=O)N2CCCCCC2c2nnc(C)o2)c(C)c1 (stereo unspecified)
15 | 834 | CC(C)(C)CC(=O)N1CC2CN(S(=O)(=O)c3cccc(F)c3)CC(C1)O2
16 | 645 | Cc1c(C(N)=O)nnn1-c1ccccc1
17 | 802 | COc1ccc(S(=O)(=O)N2CCCC(C(=O)NC3CCCC3)C2)cc1OC (stereo unspecified)
18 | 1010 | CCOCCCNC(=O)N1CCN(c2nc3ccccc3n(Cc3ccc(C)cc3)c2=O)CC1

Row | RP-LC retention time [s] | SMILES
19 | 700 | O=C(CN1CCN(Cc2ccccc2)CC1)Nc1nc(-c2ccccc2)cs1
20 | 763 | N#Cc1ccc(NC(=O)Cc2csc3nc(-c4ccccc4)cn23)cc1
21 | 674 | O=c1[nH]c2ccc(NCc3ccc(-c4ccccc4)cc3)cc2[nH]1
22 | 615 | c1ccc(-c2nc(-c3cnccn3)no2)c(OC2CCNC2)c1 (stereo unspecified)
23 | 1010 | COc1ccc(-c2nn(-c3ccccc3)cc2C#N)cc1[N+](=O)[O-]
24 | 606 | Cc1nnc(-c2coc(S(=O)(=O)N3CCN(c4ccccn4)CC3)c2)o1
25 | 610 | Cc1ccc(CNC(=O)C(=O)NCC(c2ccc3c(c2)CCCN3C)N2CCOCC2)cc1 (stereo unspecified)
26 | 765 | CCOC(=O)c1c(C)c(CCC(=O)N2CCN(c3ncccn3)CC2)n(C)c1C
27 | 990 | Cc1ccc(N2CCN(S(=O)(=O)N(C)C)CC2)cc1Cl
28 | 942 | COc1ccc(COc2cc3oc(=O)c4cc(C(C)O)ccc4c3cc2OC)cc1 (stereo unspecified)
29 | 879 | Cc1ccc(-c2cn3c(CC(=O)N4CCc5ccccc5C4)csc3n2)cc1C
30 | 1030 | COc1cccc(CNC(=O)c2nnc(-c3ccc(S(=O)(=O)N4CCC(C)CC4)cc3)o2)c1
31 | 623 | COCCNC(=O)[C@@H]1[C@H](c2cc(OC)c(OC)c(OC)c2)c2cc3c(cc2[C@H](O)[C@H]1CO)OCO3
32 | 765 | Cc1ccc(CNC(=O)c2ccc3c(c2)CC(=O)N3C)cc1C
33 | 846 | CCOC(=O)c1cc(S(=O)(=O)N2CCCC2C(=O)NCc2ccc(C)o2)cn1C (stereo unspecified)
34 | 712 | C[C@@H]1CN(CCCn2c3ccccc3c3ccccc32)C[C@H](C)N1
35 | 638 | CC(C)(C)C(=O)N1CCC(OC2CCN(Cc3ccccc3)CC2)CC1
36 | 627 | Cc1cc(N(C)C)n2nc(CN3CCN(c4ccccc4Cl)CC3)nc2n1
